{
  "source": "patent US7282325B2",
  "about": "“Method of preparing pharmaceutical compositions” (Solvay Pharmaceuticals GmbH, priority 2000, dated 2007)",
  "key": {"[1]": {"biological_target": "T1, carboanhydrase of the subtype Va of mice (mCA Va) (Mus musculus, UniProt P23589)", "T1 construct": "made in house; host or cells: Escherichia coli BL 21 (DE3)", "T1 sequence (P23589 30-299)": "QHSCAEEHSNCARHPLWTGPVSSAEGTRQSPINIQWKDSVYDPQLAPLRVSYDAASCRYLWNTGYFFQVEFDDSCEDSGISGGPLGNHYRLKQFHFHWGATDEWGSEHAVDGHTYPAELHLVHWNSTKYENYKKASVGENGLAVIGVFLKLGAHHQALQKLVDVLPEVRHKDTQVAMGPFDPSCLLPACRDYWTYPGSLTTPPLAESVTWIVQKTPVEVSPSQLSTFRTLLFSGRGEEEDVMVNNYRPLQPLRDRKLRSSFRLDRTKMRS", "assay": "4-nitrophenylacetate-esterase enzyme activity test, mCA Va used at 120 nM", "assay_type": "biochemical", "conditions": "mCA Va obtained by biotechnological processes; enzyme concentration 120 nM; read-out: inhibitory action on carboanhydrase of the subtype Va of mice (IC50)", "method": "In a departure from the test procedure described by Scozzafava et al, in this case the enzyme mCA Va was used in a concentration of 120 nM. The mCA Va was obtained in known manner by the method described by H. R. Heck et al., Journal of Biological Chemistry 269 (1994) 24742-24746. To this end, the strain of bacteria Escherichia coli BL 21 (DE3) was used, which was used with a plasmid vector which contained the sequence coding for mCA Va under the control of the T7 promoter which can be induced by isopropyl-β-D-thiogalactopyranoside (IPTG). The bacterial culture was inoculated at 37° C. with stirring into a Luria-Bertani liquid medium containing ampicillin (100 μg/ml) and its growth was monitored by spectrophotometry at 600 nm. Once the bacterial culture had entered the exponential growth phase, IPTG was added in a final concentration of 1 mmol/liter. After 3 hours incubation time (37° C. with stirring), the bacterial culture was centrifuged at 7000×g for 15 minutes, and the supernatant was discarded. The resulting pellet was taken up in 0.1 vol twice-distilled water, and lysozyme (100 μg/ml) was added thereto. The cell lysis took place under ultrasound treatment. […] After each ultrasound pulse, the absorption of the samples was determined at 600 nm, for which each 100 μl of a-sample was diluted with 900 μl twice-distilled water. […]"}, "[2]": {"system": "of the 3T3-F442A cell line", "assay": "Test model according to Hazen et al.: formation of acid-soluble metabolic products of the citric acid cycle", "assay_type": "cell-based", "conditions": "Adipocyte; rat adipocytes of the 3T3-F442A cell line; read-out: inhibitory effect on the formation of acid-soluble metabolic products of the citric acid cycle (IC50)", "from_the_text": "In a second embodiment of the method according to the invention, compounds suitable for the treatment and/or prophylaxis of obesity can be discovered by selecting those compounds which are capable of reducing the amount of metabolic products formed in the citric acid cycle of isolated living mammalian cells or of lipidic secondary products of the citric acid cycle. […] Citrate is preferred. Furthermore, lipidic secondary products of the citric acid cycle, such as free fatty acids, are suitable as metabolic products. Lastly, in this second embodiment, the ability of the test compounds to inhibit the activity of at least one carboanhydrase occurring in mammals is also determined, although the test model used is set up differently from the first embodiment mentioned. The process of the second embodiment is based on the principle of determining in known manner the uptake of radioactivity from substrates of the citric acid cycle labeled with the ^14C-isotope into metabolic intermediate products or secondary products of the citric acid cycle of isolated, living mammalian cells and comparing the results obtained with the results obtained under otherwise identical conditions, but under the influence of CA-inhibitory compounds. Isolated living cells of rodents such as rats, mice or guinea-pigs, or of man, are preferably used in this variant of the method. Human cells are preferred. […]"}},
  "data": [
    {"smiles": "CC1(C)O[C@@H]2[C@@H](CO[C@@]3(COS(N)(=O)=O)OC(C)(C)O[C@@H]23)O1", "note": "[topiramate]", "values": [
      {"measurement": "IC50", "setting": "[1]", "value": 0.074, "unit": "µM"},
      {"measurement": "IC50", "setting": "[2]", "value": 0.348, "unit": "µM"}
    ]}
  ]
}
